# According to US4988681A, “Phosphinic acid derivatives” (Banyu Pharmaceutical Co., Ltd., priority 1988, dated 1991):
# System: ddY mice
# Experiment: Acute toxicity test in mice
# Type: in vivo, Male ddY mice
# Settings: 7 days
# Method: (5) Acute toxicity test in mice
# Male ddY mice (4 week-old; body weight 24-26 g) were divided into groups each consisting of 5 animals. The compound No. 2 was intravenously administered to a first group in a dose of 2,000 mg/kg. The compound No. 2 was orally administered to a second group in a dose of 4,000 mg/kg. After the administration, the incidence of death was observed over 7 days after the administration, and the results are shown in Table 5.
smiles,measurement,setting,value
"CC(C)CP(=O)(O)C/C(=C\C1CCCCC1)C(=O)O [Compound No. 2, (Z)-3-cyclohexyl-2-(hydroxyisobutylphosphinoyl)methylpropenoic acid]","Mortality, number of dead mice versus number of mice tested","i.v. 2,000 mg/kg",0/5
same,"Mortality, number of dead mice versus number of mice tested","p.o. 4,000 mg/kg",0/5
